Laboratory results: PMC2248166, “Quantitative peptide binding motifs for 19 human and mouse MHC class I molecules derived using positional scanning combinatorial peptide libraries” (Immunome Research, 2008)
Where a SMILES comes first, the peptide text is derived from it.

Molecular target: HLA B*1503 (Homo sapiens, UniProt P01889, A329T/A93T/A95T/C349S/D201E/D98Y/E187L/E204Q/K202T/N87E/Q94N/R155S/R180L/S121R/S35A/V306I/V36M/Y140S/Y91S)
Assay: biochemical
Type: binding

CC(C)C[C@H](N)C(=O)N[C@@H](CCCCN)C(=O)N[C@@H](CO)C(=O)N[C@@H](CC(N)=O)C(=O)N[C@@H](C)C(=O)N[C@@H](CC(=O)O)C(=O)N[C@@H](Cc1c[nH]c2ccccc12)C(=O)N[C@@H](Cc1ccccc1)C(=O)N[C@@H](Cc1ccccc1)C(=O)O [3102.1304] (H-LKSNADWFF-OH)
IC50: 10 nM

CC[C@H](C)[C@H](N)C(=O)N[C@@H](CCSC)C(=O)N[C@H](C(=O)N[C@@H](CO)C(=O)NCC(=O)N[C@H](C(=O)N[C@H](C(=O)N1CCC[C@H]1C(=O)N[C@@H](Cc1ccccc1)C(=O)O)[C@@H](C)CC)C(C)C)[C@@H](C)O [3102.1305] (H-IMTSGVIPF-OH)
IC50: 0.22 nM

CC(C)[C@H](NC(=O)[C@@H](NC(=O)[C@H](C)NC(=O)[C@H](Cc1ccc(O)cc1)NC(=O)[C@@H](NC(=O)[C@H](C)NC(=O)[C@@H](N)CO)[C@@H](C)O)[C@@H](C)O)C(=O)N1CCC[C@H]1C(=O)N[C@@H](Cc1ccccc1)C(=O)O [3102.1306] (H-SATYATVPF-OH)
IC50: 12 nM

CC(C)[C@H](NC(=O)[C@H](CCC(N)=O)NC(=O)[C@H](CO)NC(=O)[C@@H](NC(=O)[C@H](CO)NC(=O)[C@@H](NC(=O)[C@H](CCC(N)=O)NC(=O)[C@@H](N)Cc1ccc(O)cc1)[C@@H](C)O)C(C)C)C(=O)N[C@@H](C)C(=O)O [3102.1307] (H-YQTSVSQVA-OH)
IC50: 1.5 nM

CSCC[C@H](NC(=O)[C@H](CC(N)=O)NC(=O)CNC(=O)[C@H](CS)NC(=O)CNC(=O)[C@H](Cc1ccc(O)cc1)NC(=O)[C@H](CCCCN)NC(=O)[C@@H](N)CCCNC(=N)N)C(=O)N[C@@H](Cc1ccccc1)C(=O)O [3102.1308] (H-RKYGCGNMF-OH)
IC50: 1.3 nM

CC[C@H](C)[C@H](NC(=O)[C@H](CC(N)=O)NC(=O)[C@H](CC(C)C)NC(=O)[C@H](Cc1ccccc1)NC(=O)[C@H](CC(C)C)NC(=O)[C@@H](N)Cc1ccccc1)C(=O)N[C@@H](CC(N)=O)C(=O)N[C@@H](Cc1c[nH]cn1)C(=O)N[C@@H](Cc1ccc(O)cc1)C(=O)O [3102.1309] (H-FLFLNINHY-OH)
IC50: 6.5 nM

CC(C)C[C@H](NC(=O)[C@@H](NC(=O)[C@H](CO)NC(=O)[C@H](C)NC(=O)[C@H](Cc1ccc(O)cc1)NC(=O)[C@H](CCC(N)=O)NC(=O)[C@H](C)N)[C@@H](C)O)C(=O)N[C@@H](CO)C(=O)N[C@H](C(=O)O)C(C)C [3102.1314] (H-AQYASTLSV-OH)
IC50: 0.16 nM

CC[C@H](C)[C@H](NC(=O)[C@H](CO)NC(=O)[C@@H]1CCCN1C(=O)[C@H](CC(C)C)NC(=O)[C@@H](NC(=O)[C@H](CCSC)NC(=O)[C@H](CCSC)NC(=O)[C@@H](N)CC(C)C)[C@@H](C)O)C(=O)N[C@@H](Cc1ccccc1)C(=O)O [3102.1317] (H-LMMTLPSIF-OH)
IC50: 0.15 nM

CC[C@H](C)[C@H](N)C(=O)N[C@@H](CCSC)C(=O)N[C@H](C(=O)N[C@@H](CO)C(=O)N[C@@H](CCC(=O)O)C(=O)N[C@@H](Cc1c[nH]cn1)C(=O)N[C@@H](Cc1ccccc1)C(=O)N[C@@H](CO)C(=O)N[C@@H](CC(C)C)C(=O)O)C(C)C [3102.1318] (H-IMVSEHFSL-OH)
IC50: 5.5 nM

CC(C)[C@H](NC(=O)[C@H](CC(N)=O)NC(=O)[C@@H](N)CO)C(=O)N[C@H](C(=O)N[C@@H](CS)C(=O)NCC(=O)N[C@H](C(=O)N[C@H](C(=O)N[C@@H](Cc1ccccc1)C(=O)O)[C@@H](C)O)[C@@H](C)O)C(C)C [3102.1319] (H-SNVVCGTTF-OH)
IC50: 25 nM

CC[C@H](C)[C@H](NC(=O)[C@H](CC(N)=O)NC(=O)[C@@H](NC(=O)[C@H](C)NC(=O)[C@H](CS)NC(=O)[C@H](CCCNC(=N)N)NC(=O)[C@@H](NC(=O)[C@@H](N)CO)[C@@H](C)CC)[C@@H](C)O)C(=O)N[C@@H](Cc1ccccc1)C(=O)O [3102.1321] (H-SIRCATNIF-OH)
IC50: 20 nM

C[C@H](NC(=O)[C@H](Cc1c[nH]c2ccccc12)NC(=O)[C@H](CO)NC(=O)CNC(=O)[C@@H](N)CCCNC(=N)N)C(=O)N[C@H](C(=O)N[C@@H](CO)C(=O)N[C@@H](CO)C(=O)N[C@@H](Cc1ccccc1)C(=O)O)[C@@H](C)O [3102.1323] (H-RGSWATSSF-OH)
IC50: 11 nM

CC[C@H](C)[C@H](NC(=O)[C@H](Cc1ccccc1)NC(=O)[C@H](CCC(=O)O)NC(=O)[C@H](Cc1ccccc1)NC(=O)[C@H](C)NC(=O)[C@H](C)N)C(=O)N[C@@H](CC(N)=O)C(=O)N[C@@H](CO)C(=O)N[C@@H](CC(C)C)C(=O)O [3102.1324] (H-AAFEFINSL-OH)
IC50: 4.6 nM

CC[C@H](C)[C@H](N)C(=O)N[C@@H](CCCCN)C(=O)N[C@H](C(=O)N[C@@H](CCSC)C(=O)N[C@@H](CCSC)C(=O)N[C@H](C(=O)N[C@@H](CC(N)=O)C(=O)N1CCC[C@H]1C(=O)N[C@@H](Cc1ccccc1)C(=O)O)[C@@H](C)CC)[C@@H](C)O [3102.1325] (H-IKTMMINPF-OH)
IC50: 0.19 nM

CC[C@H](C)[C@H](N)C(=O)N[C@@H](CCC(N)=O)C(=O)N[C@@H](Cc1ccc(O)cc1)C(=O)N[C@@H](CC(=O)O)C(=O)N[C@@H](CCCNC(=N)N)C(=O)N[C@@H](CCCNC(=N)N)C(=O)N[C@@H](CO)C(=O)N[C@@H](Cc1ccccc1)C(=O)N[C@@H](Cc1ccccc1)C(=O)O [3102.1327] (H-IQYDRRSFF-OH)
IC50: 0.15 nM

CC(C)C[C@H](NC(=O)[C@H](CO)NC(=O)[C@@H]1CCCN1C(=O)[C@H](CO)NC(=O)[C@H](Cc1ccccc1)NC(=O)[C@H](CO)NC(=O)[C@@H](NC(=O)[C@H](CO)NC(=O)[C@@H](N)Cc1ccccc1)C(C)C)C(=O)O [3102.1332] (H-FSVSFSPSL-OH)
IC50: 22 nM

CSCC[C@H](NC(=O)[C@@H](N)CCCCN)C(=O)N[C@H](C(=O)N[C@@H](Cc1ccc(O)cc1)C(=O)N[C@@H](C)C(=O)N[C@@H](CC(C)C)C(=O)N[C@@H](CC(C)C)C(=O)N[C@@H](CC(C)C)C(=O)N[C@@H](Cc1ccc(O)cc1)C(=O)O)C(C)C [3102.1336] (H-KMVYALLLY-OH)
IC50: 2.7 nM

CC(C)C[C@H](NC(=O)[C@H](C)NC(=O)[C@H](CO)NC(=O)[C@@H](N)Cc1ccccc1)C(=O)N1CCC[C@H]1C(=O)N[C@H](C(=O)N[C@@H](CC(N)=O)C(=O)N[C@@H](CCC(=O)O)C(=O)N[C@@H](Cc1ccccc1)C(=O)O)[C@@H](C)O [3102.1337] (H-FSALPTNEF-OH)
IC50: 0.13 nM

CC[C@H](C)[C@H](NC(=O)[C@H](CO)NC(=O)[C@H](CC(=O)O)NC(=O)[C@H](CO)NC(=O)[C@H](CC(N)=O)NC(=O)[C@H](CCC(N)=O)NC(=O)[C@H](CCC(N)=O)NC(=O)[C@@H](N)CO)C(=O)N[C@@H](Cc1ccccc1)C(=O)O [3102.1340] (H-SQQNSDSIF-OH)
IC50: 1.9 nM

CC[C@H](C)[C@H](NC(=O)[C@H](CC(N)=O)NC(=O)[C@@H](NC(=O)[C@H](Cc1ccccc1)NC(=O)[C@H](CO)NC(=O)[C@@H](NC(=O)[C@H](CO)NC(=O)[C@@H](N)Cc1c[nH]c2ccccc12)[C@@H](C)O)[C@@H](C)O)C(=O)N[C@@H](Cc1ccccc1)C(=O)O [3102.1342] (H-WSTSFTNIF-OH)
IC50: 5.9 nM

CC[C@H](C)[C@H](NC(=O)[C@H](CC(C)C)NC(=O)[C@H](CCC(=O)O)NC(=O)[C@@H](NC(=O)[C@@H](NC(=O)[C@H](CCC(N)=O)NC(=O)[C@@H](N)CO)[C@@H](C)O)[C@@H](C)CC)C(=O)N[C@@H](C)C(=O)N[C@@H](Cc1ccccc1)C(=O)O [3102.1343] (H-SQTIELIAF-OH)
IC50: 0.21 nM

CC[C@H](C)[C@H](NC(=O)[C@H](CC(N)=O)NC(=O)[C@H](CCSC)NC(=O)[C@@H](NC(=O)[C@H](CCSC)NC(=O)[C@@H](N)CC(C)C)[C@@H](C)O)C(=O)N[C@H](C(=O)N[C@@H](CC(N)=O)C(=O)N[C@@H](Cc1ccccc1)C(=O)O)C(C)C [3102.1344] (H-LMTMNIVNF-OH)
IC50: 17 nM
